Counter-ions that a name gives are not always drawn.
Legend:
α-synuclein [1] = target: T1, α-synuclein (Homo sapiens, UniProt P37840); experiment: Disaggregation Thioflavin T assay; assay type: biochemical; conditions: polyphenol inhibitors
T1 construct: made in house; host or cells: E. coli BL21(DE3), plasmid pRK172/α-synuclein WT

α-synuclein [2] = target: T1, α-synuclein; experiment: Aggregation inhibition Thioflavin T assay (primary assay); assay type: biochemical; conditions: for Thioflavin T signal / fibril formation by Thioflavin T fluorescence: compared with control samples (FIGS. 1-13); for lagtime for fibrillation: NINDS Collection 2 Library
α-synuclein [3] = target: T1, α-synuclein; experiment: Centrifugation to separate soluble and insoluble protein, SDS-PAGE; assay type: biochemical; conditions: for protein soluble after incubation, SDS PAGE of supernatant vs. total mixture: figure legends
α-synuclein [4] = target: T1, α-synuclein; experiment: Electron microscopy of fibrils (secondary assay); assay type: biochemical; conditions: figure legends
α-synuclein [5] = target: T1, α-synuclein; experiment: SEC HPLC, oligomer formation; assay type: biochemical; conditions: none with control
α-synuclein [6] = target: T1, α-synuclein; experiment: Atomic force microscopy of fibrils; assay type: biochemical; conditions: 45 hours post treatment, compared to control
Method: Atomic force microscopy (AFM): AFM images were collected with a PicoScan LE system (Molecular Imaging, Phoenix, AZ) equipped with Acoustic AC mode (Tapping mode) for ex-situ experiment. Triangular cantilevers with 160 kHz resonance frequency and 2 N/m spring constant, a V-shaped cantilever NSC16/AIBS (MikroMasch), were used in tapping mode imaging. The imaging was carried out at a scan rate of 1 line/s with 512 data points per line, at a drive current of 10±4 Å. Aliquots of 10 ul of sample were placed on a freshly cleaved mica substrate. After incubation for at least 60 min, the substrate was rinsed with water several times to remove salt and loosely bound protein and dried with high-purity nitrogen. Kinetics of α-synuclein fibrillation can be visualized with the use of this technique, as exemplified in FIG. 46.

[7] = in vivo; cited from earlier work
[8] = cited from earlier work

O=c1cc(-c2cccc(O)c2O)oc2ccccc12 [2′,3′-dihydroxyflavone]
disaggregation of α-synuclein aggregates (α-synuclein [1]): best disaggregators

O=c1c(O)c(-c2ccc(O)c(O)c2)oc2c(O)c(O)cc(O)c12 [3,5,7,8,3′,4′-hexahydroxyflavone]
disaggregation of α-synuclein aggregates (α-synuclein [1]): best disaggregators

O=c1cc(-c2ccc(O)c(O)c2)oc2ccccc12 [3′,4′-dihydroxyflavone]
disaggregation of α-synuclein aggregates (α-synuclein [1]): best disaggregators

O=c1c(O)c(-c2ccc(O)c(O)c2)oc2ccccc12 [3′,4′-dihydroxyflavonol]
disaggregation of α-synuclein aggregates (α-synuclein [1]): best disaggregators

O=c1cc(-c2cc(O)c(O)c(O)c2)oc2cc(O)cc(O)c12 [5,7,3′,4′,5′-pentahydroxyflavone]
disaggregation of α-synuclein aggregates (α-synuclein [1]): best disaggregators

O=c1cc(-c2cccc(O)c2O)oc2ccc(O)cc12 [6,2′,3′-trihydroxyflavone]
disaggregation of α-synuclein aggregates (α-synuclein [1]): best disaggregators

O=c1cc(-c2cc(O)c(O)c(O)c2)oc2cc(O)ccc12 [7,3′,4′,5′-tetrahydroxyflavone]
disaggregation of α-synuclein aggregates (α-synuclein [1]): best disaggregators

O=c1c(-c2ccc(O)c(O)c2)coc2cc(O)ccc12 [7,3′,4′-trihydroxyisoflavone]
disaggregation of α-synuclein aggregates (α-synuclein [1]): best disaggregators

CN1CCc2cccc3c2[C@H]1Cc1ccc(O)c(O)c1-3 [apomorphine, 6αβ-Aporphine-10,11-diol hydrochloride hemihydrate]
Thioflavin T signal / fibril formation by Thioflavin T fluorescence (α-synuclein [2]): very low
protein soluble after incubation, SDS PAGE of supernatant vs. total mixture (α-synuclein [3]): most protein still soluble
fibril formation by EM (α-synuclein [4]): negligible fibril formation
oligomer formation by SEC HPLC (α-synuclein [5]): oligomer formation

c1ccc(N=Nc2ccccc2)cc1 [azobenzene]
lagtime for fibrillation (α-synuclein [2]): Significant increases in

O=c1cc(-c2ccccc2)oc2cc(O)c(O)c(O)c12 [baicalein]
protein soluble after incubation, SDS PAGE of supernatant vs. total mixture (α-synuclein [3]): most protein still soluble
fibrils with atomic force microscopy (α-synuclein [6]): very few fibrils

C[C@@](Cc1ccc(O)c(O)c1)(NN)C(=O)O [carbidopa]
Thioflavin T signal / fibril formation by Thioflavin T fluorescence (α-synuclein [2]): negligible fibril formation
protein soluble after incubation, SDS PAGE of supernatant vs. total mixture (α-synuclein [3]): most protein still soluble
fibril formation by EM (α-synuclein [4]): negligible fibril formation

Cn1nnnc1SCC1=C(C(=O)O)N2C(=O)[C@@H](NC(=O)[C@H](O)c3ccccc3)[C@H]2SC1 [cefamandole sodium]
lagtime for fibrillation (α-synuclein [2]): Significant increases in

O=C(Cc1cccs1)N[C@@H]1C(=O)N2C(C(=O)[O-])=C(C[n+]3ccccc3)CS[C@H]12 [cephaloridine]
lagtime for fibrillation (α-synuclein [2]): Significant increases in

N.N.[Cl][Pt][Cl] [cisplatin]
Thioflavin T signal / fibril formation by Thioflavin T fluorescence (α-synuclein [2]): negligible fibril formation
fibril formation by EM (α-synuclein [4]): negligible fibril formation

CC(CCc1ccc(O)cc1)NCCc1ccc(O)c(O)c1 (stereo not shown) [dobutamine]
Thioflavin T signal / fibril formation by Thioflavin T fluorescence (α-synuclein [2]): negligible fibril formation
protein soluble after incubation, SDS PAGE of supernatant vs. total mixture (α-synuclein [3]): most protein still soluble
fibril formation by EM (α-synuclein [4]): negligible fibril formation

NCCc1ccc(O)c(O)c1 [dopamine]
crossing of the blood-brain barrier [7]: does not cross

CCCCOc1ccc(C(=O)CCN2CCCCC2)cc1 [dyclonine hydrochloride]
lagtime for fibrillation (α-synuclein [2]): Significant increases in

CCCCCCCC/C=C/CCCCCCCCOP(=O)([O-])OCC[N+](C)(C)C [elaidyphosphocholine (antineoplastic), elaidylphosphocholine]
Thioflavin T signal / fibril formation by Thioflavin T fluorescence (α-synuclein [2]): negligible fibril formation
protein soluble after incubation, SDS PAGE of supernatant vs. total mixture (α-synuclein [3]): most protein still soluble
fibril formation by EM (α-synuclein [4]): negligible fibril formation

O=C(O[C@@H]1Cc2c(O)cc(O)cc2O[C@@H]1c1cc(O)c(O)c(O)c1)c1cc(O)c(O)c(O)c1 [epigallocatechin gallate]
disaggregation of α-synuclein aggregates (α-synuclein [1]): best disaggregators

O=c1c(O)c(-c2ccc(O)c(O)c2)oc2cc(O)ccc12 [fisetin]
disaggregation of α-synuclein aggregates (α-synuclein [1]): best disaggregators

CC(C)NCC(O)c1ccc(O)c(O)c1 (stereo not shown) [isoproterenol]
Thioflavin T signal / fibril formation by Thioflavin T fluorescence (α-synuclein [2]): very low
protein in the supernatant after centrifugation (α-synuclein [3]; FIG. 1B, control samples <15%): > 90%
fibril formation by EM (α-synuclein [4]): Few fibrils

N[C@@H](Cc1ccc(O)c(O)c1)C(=O)O [l-dopa, (−)-L-a-amino-b-(3,4-dihydroxybenzene)propanoic acid]
crossing of the blood-brain barrier [7]: does cross
solubility in water [8]: slightly soluble

Cc1c(OCC(F)(F)F)ccnc1C[S+]([O-])c1nc2ccccc2[nH]1 (stereo not shown) [lansoprazole]
lagtime for fibrillation (α-synuclein [2]): Significant increases in

O=c1cc(-c2ccc(O)c(O)c2)oc2cc(O)cc(O)c12 [luteolin]
disaggregation of α-synuclein aggregates (α-synuclein [1]): best disaggregators

CCCCOc1ccc(OCCCN2CCOCC2)cc1 [pramoxine hydrochloride]
lagtime for fibrillation (α-synuclein [2]): Significant increases in

O=C1c2ccccc2C(=O)c2c(O)c(O)cc(O)c21 [purpurin]
lagtime for fibrillation (α-synuclein [2]): Significant increases in

Oc1cccc(O)c1O [pyrogallol]
disaggregation of α-synuclein aggregates (α-synuclein [1]): best disaggregators

O=C1c2ccc(O)c(O)c2C(=O)c2c(O)ccc(O)c21 [quinalizarin]
Thioflavin T signal / fibril formation by Thioflavin T fluorescence (α-synuclein [2]): negligible fibril formation
protein soluble after incubation, SDS PAGE of supernatant vs. total mixture (α-synuclein [3]): most protein still soluble
fibril formation by EM (α-synuclein [4]): negligible fibril formation

NC(=O)c1ccc[n+]([C@@H]2O[C@H](COP(=O)([O-])OP(=O)(O)OC[C@H]3O[C@@H](n4cnc5c(N)ncnc54)[C@H](OP(=O)(O)O)[C@@H]3O)[C@@H](O)[C@H]2O)c1 [sodium beta-nicotinamide adenine dinucleotide phosphate]
lagtime for fibrillation (α-synuclein [2]): Significant increases in

chlorophyllide Cu complex Na salt
Thioflavin T signal / fibril formation by Thioflavin T fluorescence (α-synuclein [2]): negligible fibril formation
protein soluble after incubation, SDS PAGE of supernatant vs. total mixture (α-synuclein [3]): most protein still soluble
fibril formation by EM (α-synuclein [4]): negligible fibril formation

pyrogallin
Thioflavin T signal / fibril formation by Thioflavin T fluorescence (α-synuclein [2]): negligible fibril formation
protein soluble after incubation, SDS PAGE of supernatant vs. total mixture (α-synuclein [3]): most protein still soluble
fibril formation by EM (α-synuclein [4]): negligible fibril formation
